Key:
[1] = system: polyglutamine luciferase reporter; experiment: Screening: polyglutamine luciferase reporter assay in NUGC3 cells (luminescence % of DMSO); type: cell-based, human; conditions: NUGC3 cells, luminescence relative to DMSO, concentration not given
[2] = system: YAP/TAZ; experiment: Screening: YAP/TAZ activity reporter (8xGTIIC plasmid) assay in NUGC3 cells (luminescence % of DMSO); type: cell-based, human; conditions: NUGC3 cells, luminescence relative to DMSO, concentration not given
[3] = system: triple-negative breast cancer cell line MDA-MB-231; experiment: Anti-tumor effect evaluation test in MDA-MB-231 tumor model mice; type: in vivo, immunodeficient mice (BALB/c-nu/nu); conditions: 100 mg/kg intraperitoneally every other day in corn oil; FIG. 1 and 2
Procedure: A cell suspension (1×10^6 cells/100 μL), in which triple-negative breast cancer cell line MDA-MB-231 was suspended in phosphate buffer (PBS, produced by FUJIFILM Wako Pure Chemical Corporation), was inoculated subcutaneously in the dorsal lumbar region of immunodeficient mice (BALB/c-nu/nu, female, 6 weeks old, purchased from Shimizu Laboratory Supplies Co., Ltd.) using a syringe with a 23 G injection needle (Terumo Corporation). After confirming that the cancer cells engrafted under the skin of the mice to form tumor tissues, and that the tumor volume reached 100 mm^3, the obtained tumor model mice were used for the following evaluation test. First, each compound for evaluation was dissolved in corn oil (produced by Sigma-Aldrich Co., LLC) and administered intraperitoneally. PVZF0024 was administered at 100 mg/kg and PVZF2001 was administered at 20 mg/kg to the tumor model mice every other day. At each administration, the tumor diameter was measured with a caliper. The tumor volume was calculated according to the following formula: V=(3.14×D×d^2)/6 (wherein V is the tumor volume, D is the tumor major axis, and d is the tumor minor axis) (Wu. et al., Clin. Cancer Res., 2013 Oct. 15; 19(20): 5699-5710).

[4] = polyglutamine luciferase reporter
[5] = YAP/TAZ activity reporter (8×GTIIC)

Row | SMILES | Polyglutamine [1] [%] | 8×GTIIC [2] [%] | antitumor effect (tumor growth, tumor volume) [3] | Polyglutamine [1, 4] [%] | 8×GTIIC [2, 5] [%]
1 | Oc1ccccc1C1CC(c2ccc3c(c2)OCCO3)=NN1 (stereo not shown) [PVZF0024] | 15.8 | 23.4 | significantly inhibit tumor growth | – | –
2 | Cc1ccc(S(=O)(=O)CC2CCC(S(C)(=O)=O)CC2)c(C(C)(C)C)c1 (stereo not shown) [SA085] | – | – | – | 86 | 83.09
3 | Cc1cc(C)c(C)c(S(=O)(=O)CC2CCC(S(C)(=O)=O)CC2)c1C (stereo not shown) [SA086] | – | – | – | 33.07 | 40.75
4 | CC(C)(C)c1ccccc1S(=O)(=O)CC1CCC(C2CC2)CC1 (stereo not shown) [SA087] | – | – | – | 78.43 | 59.57
5 | CC(C)(C)Cc1ccccc1S(=O)(=O)CC1CCC(C2CC2)CC1 (stereo not shown) [SA089] | – | – | – | 56.61 | 50.1
6 | CC1CC(C)CC(S(=O)(=O)C2CCC(CS(=O)(=O)c3ccccc3)CC2)C1 (stereo not shown) [SA090] | – | – | – | 84.73 | 64.02
7 | O=S(=O)(CC1CCC(C2CC2)CC1)c1ccc2c(c1)CCC2 (stereo not shown) [SA091] | – | – | – | 88.36 | 101.3
8 | Cc1cc(C)c(C)c(S(=O)(=O)CC2CCC(S(C)(=O)=O)CC2)c1C (stereo not shown) [SA093] | – | – | – | 38.43 | 39.06
9 | CCc1ccc(CC)c(S(=O)(=O)CC2CCC(S(C)(=O)=O)CC2)c1 (stereo not shown) [SA095] | – | – | – | 44.97 | 67.3

— patent US20230210834A1, “RNA METHYLTRANSFERASE INHIBITOR, SCREENING METHOD THEREFOR, ANTI-CANCER AGENT EFFICACY ASSESSMENT MARKER, AND KIT FOR EFFECTIVELY PREDICTING FTSJ1 INHIBITOR” (National University Corporation Okayama University, priority 2019, published 2023)
